The source of these data is ChEMBL document CHEMBL1201862, “PubChem BioAssay data set” (2004).

Test [1] concerns the target Serine/threonine-protein phosphatase PP1-alpha catalytic subunit (Homo sapiens, UniProt P62136). As to the kind of experiment: inhibition of protein phosphatase 1 activity – biochemical, fluorescence, dose response (AID 2394).
The target of test [2] is Serine/threonine-protein phosphatase (Homo sapiens, UniProt Q9BPW0). The test is described as follows: inhibition of protein phosphatase 5 activity – biochemical, fluorescence, dose response (AID 2395).
Serine/threonine-protein phosphatase, sequence (Q9BPW0 whole entry): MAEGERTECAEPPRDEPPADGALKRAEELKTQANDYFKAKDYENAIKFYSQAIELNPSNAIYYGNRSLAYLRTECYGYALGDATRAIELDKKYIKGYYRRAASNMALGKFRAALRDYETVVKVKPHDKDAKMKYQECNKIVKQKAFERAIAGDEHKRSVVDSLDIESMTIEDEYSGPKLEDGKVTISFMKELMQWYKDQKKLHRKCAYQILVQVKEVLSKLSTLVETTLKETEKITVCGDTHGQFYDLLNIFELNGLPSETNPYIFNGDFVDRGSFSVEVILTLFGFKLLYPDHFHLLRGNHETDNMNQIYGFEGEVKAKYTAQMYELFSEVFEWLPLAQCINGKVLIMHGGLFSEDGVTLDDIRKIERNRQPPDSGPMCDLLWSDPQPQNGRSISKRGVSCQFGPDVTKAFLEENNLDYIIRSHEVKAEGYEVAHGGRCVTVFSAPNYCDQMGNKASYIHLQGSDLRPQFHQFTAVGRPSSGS
The target of test [3] is T1, Apoptotic protease-activating factor 1 (Homo sapiens, UniProt O14727).
T1 sequence (O14727 whole entry): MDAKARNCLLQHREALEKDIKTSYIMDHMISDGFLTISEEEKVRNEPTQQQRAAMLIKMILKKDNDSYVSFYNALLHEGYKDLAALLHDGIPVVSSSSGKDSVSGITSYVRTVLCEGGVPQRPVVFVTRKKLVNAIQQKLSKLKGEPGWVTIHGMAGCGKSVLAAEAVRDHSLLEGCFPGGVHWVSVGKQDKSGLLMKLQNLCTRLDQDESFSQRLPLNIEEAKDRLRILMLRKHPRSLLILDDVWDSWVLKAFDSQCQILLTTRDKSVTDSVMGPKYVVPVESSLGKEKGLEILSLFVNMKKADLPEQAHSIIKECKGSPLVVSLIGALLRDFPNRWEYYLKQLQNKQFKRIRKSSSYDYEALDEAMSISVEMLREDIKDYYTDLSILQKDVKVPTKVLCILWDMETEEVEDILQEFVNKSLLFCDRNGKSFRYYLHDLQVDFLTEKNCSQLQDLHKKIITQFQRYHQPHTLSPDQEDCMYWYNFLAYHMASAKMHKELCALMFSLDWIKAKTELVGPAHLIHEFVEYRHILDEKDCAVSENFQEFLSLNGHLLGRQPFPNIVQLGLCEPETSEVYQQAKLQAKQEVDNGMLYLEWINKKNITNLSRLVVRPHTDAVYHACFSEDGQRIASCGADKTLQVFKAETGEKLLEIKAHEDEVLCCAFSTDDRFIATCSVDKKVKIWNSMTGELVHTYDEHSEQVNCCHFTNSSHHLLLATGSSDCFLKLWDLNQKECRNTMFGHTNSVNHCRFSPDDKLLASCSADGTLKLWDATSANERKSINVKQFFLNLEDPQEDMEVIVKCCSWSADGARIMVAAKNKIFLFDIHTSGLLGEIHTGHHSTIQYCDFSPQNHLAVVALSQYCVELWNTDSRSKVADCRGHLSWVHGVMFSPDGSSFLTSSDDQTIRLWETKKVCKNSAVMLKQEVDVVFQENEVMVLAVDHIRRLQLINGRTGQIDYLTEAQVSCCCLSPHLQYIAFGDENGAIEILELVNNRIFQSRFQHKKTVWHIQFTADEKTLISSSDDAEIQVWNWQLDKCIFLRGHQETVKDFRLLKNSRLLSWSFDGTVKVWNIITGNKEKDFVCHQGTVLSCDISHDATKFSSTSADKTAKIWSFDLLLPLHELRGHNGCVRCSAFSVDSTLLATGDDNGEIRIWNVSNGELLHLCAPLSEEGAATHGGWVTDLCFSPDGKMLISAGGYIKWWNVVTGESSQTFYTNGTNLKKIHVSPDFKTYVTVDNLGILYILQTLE
It counts as functional.

For the next test, the target named is T2, Caspase-6 (Homo sapiens, UniProt P55212).
T2 sequence (P55212 whole entry): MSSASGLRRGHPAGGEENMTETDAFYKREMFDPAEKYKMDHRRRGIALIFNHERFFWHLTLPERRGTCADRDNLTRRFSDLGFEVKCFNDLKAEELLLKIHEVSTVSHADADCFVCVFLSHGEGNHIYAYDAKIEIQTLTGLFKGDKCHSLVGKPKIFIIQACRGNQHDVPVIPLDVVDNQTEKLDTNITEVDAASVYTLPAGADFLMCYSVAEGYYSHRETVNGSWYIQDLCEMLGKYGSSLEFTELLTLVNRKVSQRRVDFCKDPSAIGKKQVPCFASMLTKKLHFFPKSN
The test is described as follows: inhibition of CASP6 peptide cleavage – biochemical, VEID-R110 fluorescence, cherry-pick, dose response (AID 720632).

The subject of the next test is HEK293. The test is described as follows: cells. It counts as functional, cell-based. Particulars: Homo sapiens.
Test [4] deals with T3, Nuclear receptor subfamily 0 group B member 1 (Homo sapiens, UniProt P51843).
T3 sequence (P51843 whole entry): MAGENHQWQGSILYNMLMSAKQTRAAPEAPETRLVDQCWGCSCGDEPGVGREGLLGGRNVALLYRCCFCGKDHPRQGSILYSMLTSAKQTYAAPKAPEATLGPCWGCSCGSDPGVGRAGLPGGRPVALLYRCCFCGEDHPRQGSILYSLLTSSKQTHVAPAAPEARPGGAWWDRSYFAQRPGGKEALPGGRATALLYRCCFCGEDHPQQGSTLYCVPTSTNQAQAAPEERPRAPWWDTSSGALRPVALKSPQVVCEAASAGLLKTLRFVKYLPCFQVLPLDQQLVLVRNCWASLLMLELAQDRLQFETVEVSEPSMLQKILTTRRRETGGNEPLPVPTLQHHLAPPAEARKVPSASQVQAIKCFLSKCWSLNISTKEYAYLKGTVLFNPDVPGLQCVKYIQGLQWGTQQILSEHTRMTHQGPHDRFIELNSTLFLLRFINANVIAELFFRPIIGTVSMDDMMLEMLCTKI
The test is described as follows: Luminescence-based cell-based high throughput dose response assay for inhibitors of the orphan nuclear receptor subfamily 0, group B, member 1 (DAX1; NR0B1). [Related pubchem assays (depositor defined):AID504766, AID504790]. It counts as functional.

Test [5] has as its target T4, Sentrin-specific protease 8 (Homo sapiens, UniProt Q96LD8).
T4 sequence (Q96LD8 whole entry): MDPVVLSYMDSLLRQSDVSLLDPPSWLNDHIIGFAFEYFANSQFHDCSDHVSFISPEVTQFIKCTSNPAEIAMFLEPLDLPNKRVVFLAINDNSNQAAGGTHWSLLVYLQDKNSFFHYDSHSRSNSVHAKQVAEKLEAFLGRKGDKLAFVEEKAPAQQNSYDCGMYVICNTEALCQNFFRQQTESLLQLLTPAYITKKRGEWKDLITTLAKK
The test is described as follows: inhibition of human SENP8 cleavage activity – biochemical, luminescence, SAR follow-up (AID 504501). The test is classed as functional.

In another test the target is T5, Caspase-3 (Homo sapiens, UniProt P42574).
T5 sequence (P42574 whole entry): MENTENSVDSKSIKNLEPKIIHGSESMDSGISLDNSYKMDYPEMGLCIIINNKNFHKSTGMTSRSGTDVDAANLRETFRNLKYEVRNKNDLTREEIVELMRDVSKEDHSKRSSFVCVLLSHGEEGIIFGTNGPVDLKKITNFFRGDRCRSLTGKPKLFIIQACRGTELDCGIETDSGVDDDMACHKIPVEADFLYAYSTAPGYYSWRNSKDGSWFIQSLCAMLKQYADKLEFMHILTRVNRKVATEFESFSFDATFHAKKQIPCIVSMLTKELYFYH
The test is described as follows: SAR Analysis of small molecule inhibitors of Sentrin-specific proteases (SENPs) using a Caspase-3 Selectivity assay. [Related pubchem assays (depositor defined):AID2540, AID2599, AID434973, AID489001]. The test is classed as functional.

The target in test [6] is T6, Sentrin-specific protease 6 (Homo sapiens, UniProt Q9GZR1).
T6 sequence (Q9GZR1 whole entry): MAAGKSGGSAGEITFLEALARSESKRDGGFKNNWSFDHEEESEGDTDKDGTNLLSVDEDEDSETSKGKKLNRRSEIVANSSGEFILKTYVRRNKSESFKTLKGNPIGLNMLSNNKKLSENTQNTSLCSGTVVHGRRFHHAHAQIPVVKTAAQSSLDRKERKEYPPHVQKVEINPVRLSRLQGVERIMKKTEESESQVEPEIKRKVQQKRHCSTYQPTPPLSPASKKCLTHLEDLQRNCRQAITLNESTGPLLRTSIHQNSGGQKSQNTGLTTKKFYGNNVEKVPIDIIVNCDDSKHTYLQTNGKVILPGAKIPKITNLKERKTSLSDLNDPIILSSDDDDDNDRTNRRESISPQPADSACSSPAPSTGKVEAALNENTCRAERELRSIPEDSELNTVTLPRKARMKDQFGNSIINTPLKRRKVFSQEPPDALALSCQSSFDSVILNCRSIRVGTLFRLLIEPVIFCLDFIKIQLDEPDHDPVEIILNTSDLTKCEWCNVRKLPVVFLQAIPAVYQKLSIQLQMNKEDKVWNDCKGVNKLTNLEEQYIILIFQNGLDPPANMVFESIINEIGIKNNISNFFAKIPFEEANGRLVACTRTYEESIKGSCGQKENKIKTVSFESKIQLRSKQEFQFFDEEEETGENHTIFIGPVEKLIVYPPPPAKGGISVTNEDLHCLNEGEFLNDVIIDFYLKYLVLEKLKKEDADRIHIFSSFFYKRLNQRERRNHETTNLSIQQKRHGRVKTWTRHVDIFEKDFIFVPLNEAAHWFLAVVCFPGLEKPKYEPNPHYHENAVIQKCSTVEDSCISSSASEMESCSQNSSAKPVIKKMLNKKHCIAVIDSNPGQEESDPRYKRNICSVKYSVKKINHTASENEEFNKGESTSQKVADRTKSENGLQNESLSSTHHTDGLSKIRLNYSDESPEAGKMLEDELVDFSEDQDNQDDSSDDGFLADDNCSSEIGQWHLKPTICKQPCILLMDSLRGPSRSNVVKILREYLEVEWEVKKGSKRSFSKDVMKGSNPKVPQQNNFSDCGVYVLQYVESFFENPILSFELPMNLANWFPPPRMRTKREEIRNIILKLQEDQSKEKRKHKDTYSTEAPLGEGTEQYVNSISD
The test is described as follows: SAR Analysis of small molecule inhibitors of Sentrin-specific protease 6 (SENP6) using a Luminescent assay. [Related pubchem assays (depositor defined):AID2582, AID2599]. It counts as functional.

Test [7] addresses T7, Sentrin-specific protease 7 (Homo sapiens, UniProt Q9BQF6).
T7 sequence (Q9BQF6 whole entry): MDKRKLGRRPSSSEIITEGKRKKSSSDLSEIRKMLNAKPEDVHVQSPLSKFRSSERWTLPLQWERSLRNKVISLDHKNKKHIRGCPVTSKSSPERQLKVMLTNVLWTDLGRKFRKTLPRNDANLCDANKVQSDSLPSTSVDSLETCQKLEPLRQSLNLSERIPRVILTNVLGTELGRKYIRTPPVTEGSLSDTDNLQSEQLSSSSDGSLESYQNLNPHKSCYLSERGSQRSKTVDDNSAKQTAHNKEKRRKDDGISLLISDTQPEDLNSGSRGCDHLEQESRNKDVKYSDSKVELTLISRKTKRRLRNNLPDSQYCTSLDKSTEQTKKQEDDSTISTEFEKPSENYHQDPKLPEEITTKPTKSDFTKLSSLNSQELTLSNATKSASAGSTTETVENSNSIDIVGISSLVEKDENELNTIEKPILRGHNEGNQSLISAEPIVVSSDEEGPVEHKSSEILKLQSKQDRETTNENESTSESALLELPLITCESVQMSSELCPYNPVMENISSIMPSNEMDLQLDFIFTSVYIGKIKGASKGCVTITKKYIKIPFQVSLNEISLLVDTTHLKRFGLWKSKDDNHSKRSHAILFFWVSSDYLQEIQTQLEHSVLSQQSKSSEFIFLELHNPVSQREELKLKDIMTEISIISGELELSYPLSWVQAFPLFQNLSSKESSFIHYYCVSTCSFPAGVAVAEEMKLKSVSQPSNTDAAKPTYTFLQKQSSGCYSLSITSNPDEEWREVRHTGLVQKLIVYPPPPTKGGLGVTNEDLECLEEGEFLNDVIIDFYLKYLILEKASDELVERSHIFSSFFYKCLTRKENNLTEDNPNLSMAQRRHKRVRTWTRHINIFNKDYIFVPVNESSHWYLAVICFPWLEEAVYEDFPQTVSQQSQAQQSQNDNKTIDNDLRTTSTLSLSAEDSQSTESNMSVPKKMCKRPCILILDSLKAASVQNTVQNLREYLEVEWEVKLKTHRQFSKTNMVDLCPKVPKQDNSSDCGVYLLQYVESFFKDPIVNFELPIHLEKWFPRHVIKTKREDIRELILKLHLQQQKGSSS
As to the kind of experiment: inhibition of human SENP7 cleavage activity – biochemical, luminescence, SAR follow-up (AID 504497). The test is classed as functional.

The source made the active and inactive calls. Where only a bound is given, the exact number is not on record here.

Serine/threonine-protein phosphatase PP1-alpha catalytic subunit, sequence (P62136 whole entry): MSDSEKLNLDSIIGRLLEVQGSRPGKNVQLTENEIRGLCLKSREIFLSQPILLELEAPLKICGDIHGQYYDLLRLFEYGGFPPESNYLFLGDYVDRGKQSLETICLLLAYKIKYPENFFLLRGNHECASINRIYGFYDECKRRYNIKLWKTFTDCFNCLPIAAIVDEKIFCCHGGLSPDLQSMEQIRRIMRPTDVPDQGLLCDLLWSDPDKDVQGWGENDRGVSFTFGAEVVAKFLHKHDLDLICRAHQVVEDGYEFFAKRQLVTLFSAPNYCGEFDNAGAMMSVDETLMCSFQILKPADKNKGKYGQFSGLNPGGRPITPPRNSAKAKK

A word on the IC50: it is the midpoint of a concentration-inhibition curve. As a reminder, the AC50 is the midpoint of the concentration-response curve, whichever way the signal moves. Turning to `COC(=O)CCC(=O)OC1(C)C(=O)C=C2C=C(C3CC3)N(CCCCO)C=C2C1=O` (configuration not stated), the figures for the IC50 in test [1], in test [2] and in test [3] were 57.6 µM (not active), 11.8 µM (not active) and 19.4 µM (active), respectively. For the same compound, on Caspase-6, the AC50 is 8.77 µM (active).

For the compound `O=C(CCCC(=O)N1CCN(c2ccccc2F)CC1)c1ccccc1`, the IC50 (in the test with HEK293; in test [4]) was > 67.5 µM (inactive) in each case.

`CC(=O)Nc1cc(C)c2nc(NC(C)=O)sc2c1`: the IC50 (with HEK293; in test [4]) was > 67.6 µM (inactive) each time.

With `Fc1ccc(N/N=C/c2cn(Cc3ccccc3)c3ccccc23)cc1`, the IC50 (in [5]; at Caspase-3; in [6]; in [7]) was > 99 µM (inactive) in each case.
